Measured values from patent publication US8119628B2, “Pyrrolidine fused indolobenzadiazepine HCV NS5B inhibitors” (Bristol-Myers Squibb Company, priority 2008, dated 2012).

Key:
HCV NS5B = target: T1, HCV NS5B (Hepatitis C virus genotype 1b, UniProt Q9WMX2); experiment: Modified HCV NS5B RdRp enzyme assay (preincubation protocol); format: biochemical; details: HCV NS5B RdRp genotype 1b
T1 construct: The protein was expressed with an 18 amino acid C-terminal truncation to enhance the solubility; made in house; host or cells: E. coli BL21(DE3)
Protocol: HCV NS5B RdRp cloning, expression, and purification. The cDNA encoding the NS5B protein of HCV, genotype 1b, was cloned into the pET21a expression vector. The protein was expressed with an 18 amino acid C-terminal truncation to enhance the solubility. The E. coli competent cell line BL21(DE3) was used for expression of the protein. Cultures were grown at 37° C. for ˜4 hours until the cultures reached an optical density of 2.0 at 600 nm. The cultures were cooled to 20° C. and induced with 1 mM IPTG. Fresh ampicillin was added to a final concentration of 50 μg/ml and the cells were grown overnight at 20° C.
Cell pellets (3 L) were lysed for purification to yield 15-24 […] of purified NS5B. The lysis buffer consisted of 20 mM Tris-HCl, pH 7.4, 500 mM NaCl, 0.5% triton X-100, 1 mM DTT, 1 mM EDTA, 20% glycerol, 0.5 mg/ml lysozyme, 10 mM MgCl2, 15 ug/ml deoxyribonuclease I, and Complete TM protease inhibitor tablets (Roche). After addition of the lysis buffer, frozen cell pellets were resuspended using a tissue homogenizer. To reduce the viscosity of the sample, aliquots of the lysate were sonicated on ice using a microtip attached to a Branson sonicator. The sonicated lysate was centrifuged at 100,000×g for 1 hr at 4° C. and filtered through a 0.2 μm filter unit (Corning).
The protein was purified using three sequential chromatography steps: Heparin sepharose CL-6B, polyU sepharose 4B, and Hitrap SP sepharose (Pharmacia). The chromatography buffers were identical to the lysis buffer but contained no lysozyme, deoxyribonuclease I, MgCl2 or protease inhibitor and the NaCl concentration of the buffer was adjusted according to the requirements for charging the protein onto the column. Each column was eluted with a NaCl gradient which varied in length from 5-50 column volumes depending on the column type. After the final chromatography step, the resulting purity of the enzyme is >90% based on SDS-PAGE analysis. The enzyme was aliquoted and stored at −80° C.
Standard HCV NS5B RdRp enzyme assay. HCV RdRp genotype 1b assays were run in a final volume of 60 μl in 96 well plates (Costar 3912). The assay buffer is composed of 20 mM Hepes, pH 7.5, 2.5 mM KCl, 2.5 mM MgCl2, 1 mM DTT, 1.6 U RNAse inhibitor (Promega N2515), 0.1 mg/ml BSA (Promega R3961), and 2% glycerol. All compounds were serially diluted (3-fold) in DMSO and diluted further in water such that the final concentration of DMSO in the assay was 2%. HCV RdRp genotype 1b enzyme was used at a final concentration of 28 nM. A polyA template was used at 6 nM, and a biotinylated oligo-dT12 primer was used at 180 nM final concentration. Template was obtained commercially (Amersham 27-4110). Biotinylated primer was prepared by Sigma Genosys. 3H-UTP was used at 0.6 μCi (0.29 μM total UTP). Reactions were initiated by the addition of enzyme, incubated at 30° C. for 60 min, and stopped by adding 25 μl of 50 mM EDTA containing SPA beads (4 μg/μl, Amersham RPNQ 0007). Plates were read on a Packard Top Count NXT after >1 hr incubation at room temperature.
Modified HCV NS5B RdRp enzyme assay. A modified enzyme assay was performed essentially as described for the standard enzyme assay except for the following: The biotinylated oligo dTl2 primer was precaptured on streptavidin-coated SPA beads by mixing primer and beads in assay buffer and incubating at room temperature for one hour. Unbound primer was removed after centrifugation. The primer-bound beads were resuspended in 20 mM Hepes buffer, pH 7.5 and used in the assay at final concentrations of 20 nM primer and […] beads. Order of addition in the assay: enzyme (14 nM) was added to diluted compound followed by the addition of a mixture of template (0.2 nM), 3H-UTP (0.6 μCi, 0.29 μM), and primer-bound beads, to initiate the reaction; concentrations given are final. Reactions were allowed to proceed for 4 hours at 30° C.
IC50 values for compounds were determined using seven different. […]

HCV replicon cells = experiment: HCV FRET assay in HCV replicon cells; format: cell-based; details: Hepatitis C virus
Text: FRET Assay Preparation. To perform the HCV FRET screening assay, 96-well cell culture plates were used. The FRET peptide (Anaspec, Inc.) (Taliani et al., Anal. Biochem. 1996, 240, 60-67) contains a fluorescence donor, EDANS, near one end of the peptide and an acceptor, DABCYL, near the other end. The fluorescence of the peptide is quenched by […] resonance energy transfer (RET) between the donor and the acceptor, but as the NS3 protease cleaves the peptide the products are released from RET quenching and the fluorescence of the donor becomes apparent. The assay reagent was made as follows: 5× cell Luciferase cell culture lysis reagent from Promega (#E153A) diluted to 1× with dH2O, NaCl added to 150 mM final, the FRET peptide diluted to 20 uM final from a 2 mM stock.
To prepare plates, HCV replicon cells, with or without a Renilla luciferase reporter gene, were trypsinized and placed into each well of a 96-well plate with titrated test compounds added in columns 3 through 12; columns 1 and 2 contained a control compound (HCV protease inhibitor), and the bottom row contained cells without compound. The plates were then placed in a CO2 incubator at 37° C.
Assays. Subsequent to addition of the test compounds described above (FRET Assay Preparation), at various times the plate was removed and Alamar blue solution (Trek Diagnostics, #00-100) was added per well as a measure of cellular toxicity. After reading in a Cytoflour 4000 instrument (PE Biosystems), plates were rinsed with PBS and then used for FRET assay by the addition of 30 ul of the FRET peptide assay reagent described above (FRET Assay Preparation) per well. The plate was then placed into the Cytoflour 4000 instrument which had been set to 340 excite/490 emission, automatic mode for 20 cycles and the plate read in a kinetic mode. Typically, the signal to noise using an endpoint analysis after the reads was at least three-fold. Alternatively, after Alamar blue reading, plates were rinsed with PBS, 50 ul of DMEM (high glucose) without phenol red was added and plates were then used for luciferase assay using the Promega Dual-Glo Luciferase Assay System.
Compound analysis was determined by quantification of the relative HCV replicon inhibition and the relative cytotoxicity values. To calculate cytoxicity values, the average Alamar Blue fluorescence signals from the control wells were set as 100% non-toxic. The individual signals in each of the compound test wells were then divided by the average control signal and multiplied by 100% to determine […]. To calculate the HCV replicon inhibition values, an average background value was obtained from the two wells containing the highest amount of HCV protease inhibitor at the end of the assay period. These numbers were similar to those obtained from naïve Huh-7 cells.
The background numbers were then subtracted from the average signal obtained from the control wells and this number was used as 100% activity. The individual signals in each of the compound test wells were then divided by the averaged control values after background subtraction and multiplied by 100% to determine percent activity. EC50 values for a protease inhibitor titration were calculated as the concentration which caused a 50% reduction in FRET or luciferase activity. The two numbers generated for the compound plate, percent cytoxicity and percent activity were used to determine compounds of interest for further analysis.

T1 sequence (Q9WMX2 2420-2992): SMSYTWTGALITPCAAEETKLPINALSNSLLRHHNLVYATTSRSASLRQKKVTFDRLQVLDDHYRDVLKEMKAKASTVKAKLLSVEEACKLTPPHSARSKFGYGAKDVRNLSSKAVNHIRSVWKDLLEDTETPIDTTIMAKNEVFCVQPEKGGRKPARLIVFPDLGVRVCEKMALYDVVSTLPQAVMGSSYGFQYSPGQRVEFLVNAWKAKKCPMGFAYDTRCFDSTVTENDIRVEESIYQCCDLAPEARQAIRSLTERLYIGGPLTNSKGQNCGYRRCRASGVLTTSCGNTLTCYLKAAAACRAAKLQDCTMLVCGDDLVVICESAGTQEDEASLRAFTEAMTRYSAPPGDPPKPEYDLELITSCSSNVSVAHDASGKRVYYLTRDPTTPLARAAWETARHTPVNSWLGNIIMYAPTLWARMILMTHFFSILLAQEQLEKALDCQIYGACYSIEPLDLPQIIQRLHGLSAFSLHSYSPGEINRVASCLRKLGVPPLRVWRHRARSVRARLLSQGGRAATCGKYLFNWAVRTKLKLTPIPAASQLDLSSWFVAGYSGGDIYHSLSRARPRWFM

Structure (SMILES)	IC50 (HCV NS5B; reported as class)	EC50 (HCV replicon cells; reported as class)	IC50 (HCV NS5B)	EC50 (HCV replicon cells)
COc1ccc2c(c1)C1CN(Cc3cncn3C)CC1(C(=O)N(C)C)Cn1c-2c(C2CCCCC2)c2ccc(C(=O)NS(=O)(=O)N(C)C)cc21 (racemic) [Example 18, rac-(3aR,14bR)-10-Cyclohexyl-N^7-(dimethylsulfamoyl)-13-methoxy-N^3a,N^3a-dimethyl-2-((1-methyl-1H-imidazol-5-yl)methyl)-1,2,3,14b-tetrahydroindolo[2,1-a]pyrrolo[3,4-d][2]benzazepine-3a,7(4H)-dicarboxamide]	20 to 500 nM	20 to 500 nM	–	–
COc1ccc2c(c1)C1CN(C(=O)[C@@H]3CCCN3C)CC1(C(=O)N(C)C)Cn1c-2c(C2CCCCC2)c2ccc(C(=O)NS(=O)(=O)N(C)C)cc21 (mixture of isomers) [Example 19, rac-(3aR,14bR)-10-cyclohexyl-N^7-(dimethylsulfamoyl)-13-methoxy-N^3a,N^3a-dimethyl-2-(1-methyl-L-prolyl)-1,2,3,14b-tetrahydroindolo[2,1-a]pyrrolo[3,4-d][2]benzazepine-3a,7(4H)-dicarboxamide]	–	–	61 nM	63 nM
